The source of these data is ChEMBL document CHEMBL5727030, “Factor IXa inhibitors” (2018).

pIC50: −log10 of the molar value.

The target of this assay is Coagulation factor IX (Homo sapiens, UniProt P00740). Nature of the assay: Test substances were dissolved in buffer A (50 mM α,α,α-tris(hydroxymethyl) methylamine (Tris), 100 mM NaCl, 5 mM CaCl2, 15% (v/v) ethylene glycol, pH 8.0) were mixed with factor IXa (0.1 μg/ml final concentration). The enzyme reaction was started by addition of SPECTROFLUOR FIXa (100 μM final concentration).
Sequence of Coagulation factor IX (P00740 47-191 limits assumed): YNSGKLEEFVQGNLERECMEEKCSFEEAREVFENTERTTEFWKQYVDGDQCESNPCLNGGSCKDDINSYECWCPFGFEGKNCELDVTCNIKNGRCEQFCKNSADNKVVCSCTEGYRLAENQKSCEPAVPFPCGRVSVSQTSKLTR
Sequence of Coagulation factor IX (P00740 227-461 limits assumed): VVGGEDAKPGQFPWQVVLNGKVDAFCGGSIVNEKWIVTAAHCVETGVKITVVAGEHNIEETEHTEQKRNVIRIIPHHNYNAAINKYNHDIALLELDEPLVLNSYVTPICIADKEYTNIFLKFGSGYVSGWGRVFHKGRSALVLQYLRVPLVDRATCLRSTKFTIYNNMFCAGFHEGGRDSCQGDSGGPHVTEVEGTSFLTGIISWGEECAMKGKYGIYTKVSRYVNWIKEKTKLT

For `Nc1noc2c(N3CCC(NC(=O)c4c(Cl)cc(-n5cnnc5)cc4Cl)(c4ccccc4)C3)cccc12` (stereo unspecified), the negative logarithm of the IC50 (pIC50) (as a rule, the IC50 on a negative log10 scale, so that one unit is a factor of ten) was more than 7.00.
